Experimental data taken from the supplement of paper PMC10307832.

What was measured:
Assay in all cases: relative viability (nuclei count vs DMSO), 5 days (fraction); higher = more cells survive
[1] = compound: C1COCCN1C2=NC(=NC3=C2OC4=C3C=CC=N4)C5=CC(=CC=C5)NC(=O)C6=CN=C(C=C6)N + N=C(N)NC(=N)NCCc1ccccc1 [Phenformin] (partner 250 µM)
How it was run: (§1)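 Lung cancer cell lines, seeded in 1536-well plates, were treated the following day by pin tool with a single drug or with five library-drug doses (not always all listed) in √10 steps on top of a fixed anchor-drug dose. Cells were fixed and nuclei stained in one step after 5 days, and nuclei were counted. Relative viability is the nuclei count for treated wells divided by that for vehicle wells, reported as medians of duplicate plates.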

[2] = compound: Nc1ccccc1NC(=O)c1ccc(CNC(=O)OCc2cccnc2)cc1 [Entinostat] + Cc1nc(Nc2ncc(C(=O)Nc3c(C)cccc3Cl)s2)cc(N2CCN(CCO)CC2)n1 [Dasatinib] (partner 0.075 µM)
How it was run: as §1

[3] = compound: C1COCCN1C2=NC(=NC3=C2OC4=C3C=CC=N4)C5=CC(=CC=C5)NC(=O)C6=CN=C(C=C6)N + CC(C)C[C@H](NC(=O)[C@H](Cc1ccccc1)NC(=O)c1cnccn1)B(O)O [Bortezomib] (partner 0.002 µM)
How it was run: as §1

[4] = compound: C1COCCN1C2=NC(=NC3=C2OC4=C3C=CC=N4)C5=CC(=CC=C5)NC(=O)C6=CN=C(C=C6)N + C[C@]1(O)C[C@@H](c2nc(-c3ccc4ccc(-c5ccccc5)nc4c3)c3c(N)nccn32)C1 [Linsitinib] (partner 1 µM)
How it was run: as §1

Row | Cell Line | relative viability ([1]; first compound 0.02 µM) | relative viability ([1]; first compound 0.06325 µM) | relative viability ([1]; first compound 0.2 µM) | relative viability ([1]; first compound 0.6325 µM) | relative viability ([1]; first compound 2 µM) | relative viability ([2]; first compound 0.02 µM) | relative viability ([2]; first compound 0.06325 µM) | relative viability ([2]; first compound 0.2 µM) | relative viability ([2]; first compound 0.6325 µM) | relative viability ([2]; first compound 2 µM) | relative viability ([3]; first compound 0.02 µM) | relative viability ([3]; first compound 0.06325 µM) | relative viability ([3]; first compound 0.2 µM) | relative viability ([3]; first compound 0.6325 µM) | relative viability ([3]; first compound 2 µM) | relative viability ([4]; first compound 0.02 µM) | relative viability ([4]; first compound 0.06325 µM) | relative viability ([4]; first compound 0.2 µM) | relative viability ([4]; first compound 0.6325 µM) | relative viability ([4]; first compound 2 µM)
1 | SW 1573 | 0.368 | 0.454 | 0.314 | 0.319 | 0.205 | 0.532 | 0.518 | 0.711 | 0.627 | 0.454 | 1.16 | 0.904 | 1.01 | 0.888 | 0.474 | 0.75 | 0.743 | 0.824 | 0.756 | 0.544
2 | LU99A | 0.845 | 0.876 | 0.78 | 0.371 | 0.255 | 0.529 | 0.577 | 0.451 | 0.477 | 0.439 | 1.12 | 1.17 | 1.07 | 0.748 | 0.497 | 0.517 | 0.583 | 0.435 | 0.353 | 0.236
3 | NCI-H1299 | – | – | – | – | – | – | – | – | – | – | 1.06 | 1.05 | 1.02 | 1.03 | 0.798 | 0.922 | 1.13 | 0.953 | 1 | 0.805
4 | NCI-H1355 | 0.449 | 0.491 | 0.461 | 0.433 | 0.434 | 0.69 | 0.687 | 0.583 | 0.429 | 0.306 | 1.24 | 1.25 | 1.27 | 1.21 | 1.06 | 0.871 | 0.933 | 0.815 | 0.789 | 0.68
5 | HARA | 0.413 | 0.586 | 0.487 | 0.431 | 0.363 | 0.299 | 0.256 | 0.256 | 0.273 | 0.168 | 1.14 | 1.35 | 1.24 | 1 | 0.875 | 1.15 | 1.04 | 1.02 | 0.783 | 0.361
6 | LXF-289 | 0.523 | 0.536 | 0.541 | 0.49 | 0.383 | 0.209 | 0.261 | 0.177 | 0.178 | 0.185 | 1.1 | 1.11 | 0.996 | 0.997 | 0.409 | 1.02 | 1.07 | 0.975 | 0.986 | 0.76
7 | 201T | 0.452 | 0.448 | 0.443 | 0.428 | 0.33 | 0.651 | 0.559 | 0.58 | 0.421 | 0.313 | 0.994 | 1.1 | 1.02 | 1.11 | 0.97 | 1 | 1.01 | 1.05 | 0.981 | 0.97
8 | HCC-827 | 0.384 | 0.43 | 0.419 | 0.416 | 0.386 | 0.255 | 0.269 | 0.23 | 0.227 | 0.294 | 1.07 | 1.07 | 1.17 | 1.15 | 1.08 | 0.924 | 0.929 | 0.968 | 1.01 | 0.988
9 | NCI-H1703 | – | – | – | – | – | – | – | – | – | – | 0.229 | 0.278 | 0.249 | 0.267 | 0.236 | 0.412 | 0.567 | 0.747 | 0.757 | 0.381
